{"source": "ChEMBL document CHEMBL5523716", "about": "“Discovery of novel EGFR-PROTACs capable of degradation of multiple EGFR-mutated proteins” (Eur J Med Chem, 2024)", "key": {"NCI-H1975 [1]": {"tested_on": "NCI-H1975", "test": "Antiproliferative activity against human NCI-H1975 cells harboring EGFR L858R/T790M double mutant assessed as inhibition of cell growth incubated for 48 to 72 hrs by CCK-8 assay", "type": "functional, cell-based"}, "A549": {"tested_on": "A549", "test": "Antiproliferative activity against human A549 cells harboring EGFR wild type assessed as inhibition of cell growth incubated for 48 to 72 hrs by CCK-8 assay", "type": "functional, cell-based"}, "[2]": {"test": "Metabolic stability in dog liver microsomes assessed as elimination rate constant at 1 uM incubated upto 60 mins in presence of NADPH by LC-MS/MS analysis", "type": "ADME, Canis lupus familiaris, Microsome"}, "[3]": {"test": "Metabolic stability in rat liver microsomes assessed as elimination rate constant at 1 uM incubated upto 60 mins in presence of NADPH by LC-MS/MS analysis", "type": "ADME, Microsome"}, "[4]": {"test": "Metabolic stability in human liver microsomes assessed as half-life at 1 uM incubated upto 60 mins in presence of NADPH by LC-MS/MS analysis", "type": "ADME, Microsome"}, "[5]": {"test": "Metabolic stability in rat liver microsomes assessed as half-life at 1 uM incubated upto 60 mins in presence of NADPH by LC-MS/MS analysis", "type": "ADME, Microsome"}, "[6]": {"test": "Metabolic stability in rat liver microsomes assessed as intrinsic clearance at 1 uM incubated upto 60 mins in presence of NADPH by LC-MS/MS analysis", "type": "ADME, Microsome", "settings": "read-out: CLH"}, "[7]": {"test": "Half life in SPF ICR mouse at 2 mg/kg,iv measured upto 24 hrs by LC-MS/MS analysis", "type": "ADME, organism-based", "settings": "in vivo"}, "[8]": {"test": "Tmax in SPF ICR mouse at 5 mg/kg,ip measured upto 24 hrs by LC-MS/MS analysis", "type": "ADME, organism-based", "settings": "in vivo"}, "[9]": {"test": "AUC (0 to infinity) in SPF ICR mouse at 5 mg/kg,ip measured upto 24 hrs by LC-MS/MS analysis", "type": "ADME, organism-based", "settings": "in vivo"}, "[10]": {"test": "MRT (0 to infinity) in SPF ICR mouse at 5 mg/kg,ip measured upto 24 hrs by LC-MS/MS analysis", "type": "ADME, organism-based", "settings": "in vivo"}, "[11]": {"tested_on": "von Hippel-Lindau disease tumor suppressor/Epidermal growth factor receptor (Homo sapiens), P00533+P40337 [UNDEFINED MUTATION]", "test": "PROTAC activity at VHL/EGFR Del19 mutant in human HCC827 cells assessed as maximal EGFR degradation at 1.56 to 100 nM incubated for 72 hrs by Western blot analysis relative to control", "type": "cell-based", "settings": "dose 1.56-100 nM"}, "[12]": {"tested_on": "von Hippel-Lindau disease tumor suppressor/Epidermal growth factor receptor (Homo sapiens), P00533+P40337 [L858R,T790M,C797S]", "test": "PROTAC activity at VHL/EGFR L858R/T790M/C797S mutant in human H1975-TM cells assessed as maximal EGFR degradation at 0.03 to 2.5 uM incubated for 48 hrs by Western blot analysis relative to control", "type": "cell-based", "settings": "dose 0.03-2.5 µM"}, "[13]": {"tested_on": "von Hippel-Lindau disease tumor suppressor/Epidermal growth factor receptor (Homo sapiens), P00533+P40337 [L858R,T790M]", "test": "PROTAC activity at VHL/EGFR L858R/T790M mutant in human NCI-H1975 cells assessed as downregulation of EGFR phosphorylation incubated for 72 hrs by Western blot analysis", "type": "cell-based"}, "[14]": {"tested_on": "von Hippel-Lindau disease tumor suppressor/Epidermal growth factor receptor (Homo sapiens), P00533+P40337 [L858R,T790M]", "test": "PROTAC activity at VHL/EGFR L858R/T790M mutant in human NCI-H1975 cells assessed as downregulation of AKT phosphorylation incubated for 72 hrs by Western blot analysis", "type": "cell-based"}, "[15]": {"tested_on": "von Hippel-Lindau disease tumor suppressor/Epidermal growth factor receptor (Homo sapiens), P00533+P40337 [L858R,T790M,C797S]", "test": "PROTAC activity at VHL/EGFR L858R/T790M/C797S mutant in human H1975-TM cells assessed as downregulation of AKT phosphorylation incubated for 48 hrs by Western blot analysis", "type": "cell-based"}, "[16]": {"tested_on": "von Hippel-Lindau disease tumor suppressor/Epidermal growth factor receptor (Homo sapiens), P00533+P40337 [L858R,T790M]", "test": "PROTAC activity at VHL/EGFR L858R/T790M mutant in human NCI-H1975 cells assessed as induction of EGFR degradation at 2 uM by Western blot analysis", "type": "cell-based", "settings": "TDE = time-dependent effect"}, "[17]": {"tested_on": "von Hippel-Lindau disease tumor suppressor/Epidermal growth factor receptor (Homo sapiens), P00533+P40337 [L858R,T790M,C797S]", "test": "PROTAC activity at VHL/EGFR L858R/T790M/C797S mutant in human H1975-TM cells assessed as induction of EGFR degradation at 2.5 uM Western blot analysis", "type": "cell-based", "settings": "TDE = time-dependent effect"}, "[18]": {"tested_on": "von Hippel-Lindau disease tumor suppressor/Epidermal growth factor receptor (Homo sapiens), P00533+P40337 [L858R,T790M]", "test": "PROTAC activity at VHL/EGFR L858R/T790M mutant in human NCI-H1975 cells assessed as induction of EGFR degradation at 2 uM incubated for 8 hr by Western blot analysis", "type": "cell-based"}, "[19]": {"tested_on": "von Hippel-Lindau disease tumor suppressor/Epidermal growth factor receptor (Homo sapiens), P00533+P40337 [L858R,T790M]", "test": "PROTAC activity at VHL/EGFR L858R/T790M mutant in human NCI-H1975 cells assessed as induction of EGFR degradation at 100 nM preincubated with MG-132 for 6 hrs followed by compound treatment for 48 hrs by Western blot analysis", "type": "cell-based"}, "[20]": {"tested_on": "von Hippel-Lindau disease tumor suppressor/Epidermal growth factor receptor (Homo sapiens), P00533+P40337 [L858R,T790M]", "test": "PROTAC activity at VHL/EGFR L858R/T790M mutant in human NCI-H1975 cells assessed as induction of EGFR degradation at 100 nM preincubated with MLN-4924 for 6 hrs followed by compound treatment for 48 hrs by Western blot analysis", "type": "cell-based"}, "[21]": {"tested_on": "von Hippel-Lindau disease tumor suppressor/Epidermal growth factor receptor (Homo sapiens), P00533+P40337 [L858R,T790M,C797S]", "test": "PROTAC activity at VHL/EGFR L858R/T790M/C797S mutant in human H1975-TM cells assessed as induction of EGFR degradation at 100 nM preincubated with MG-132 for 6 hrs followed by compound treatment for 48 hrs by Western blot analysis", "type": "cell-based"}, "[22]": {"tested_on": "von Hippel-Lindau disease tumor suppressor/Epidermal growth factor receptor (Homo sapiens), P00533+P40337 [L858R,T790M,C797S]", "test": "PROTAC activity at VHL/EGFR L858R/T790M/C797S mutant in human H1975-TM cells assessed as induction of EGFR degradation at 100 nM preincubated with MLN-4924 for 6 hrs followed by compound treatment for 48 hrs by Western blot analysis", "type": "cell-based"}, "HCC827": {"tested_on": "HCC827", "test": "Antitumor activity against human HCC827 cells xenografted in BALB/c mouse assessed as tumor growth inhibition at 1.25 mg/kg,ip once daily for 28 days relative to control", "type": "functional", "settings": "HCC827, 672 h, time 28 day, read-out: TGI"}, "NCI-H1975 [23]": {"tested_on": "NCI-H1975", "test": "Antitumor activity against human NCI-H1975 cells xenografted in BALB/c mouse assessed as tumor growth inhibition at 5 mg/kg,ip once daily for 22 days relative to control", "type": "functional", "settings": "NCI-H1975, 528 h, time 22 day, read-out: TGI"}, "NCI-H1975 [24]": {"tested_on": "NCI-H1975", "test": "Antitumor activity against human NCI-H1975 cells xenografted in BALB/c mouse assessed as increase in EGFR degradation in tumor at 20 mg/kg,ip once daily for 22 days by Western blot analysis relative to control", "type": "functional", "settings": "time 22 day"}, "[25]": {"test": "Antitumor activity against human H1975-TM cells xenografted in BALB/c mouse assessed as tumor growth inhibition at 10 mg/kg,ip once daily for 14 days relative to control", "type": "functional", "settings": "336 h, time 14 day, read-out: TGI"}, "H1975-TM [26]": {"tested_on": "H1975-TM", "test": "Antitumor activity against human H1975-TM cells xenografted in BALB/c mouse assessed as downregulation of AKT phosphorylation in tumor at 5 to 20 mg/kg,ip once daily for 14 days by Western blot analysis", "type": "functional, organism-based", "settings": "dose 5-20 mg/kg, time 14.0 day"}, "H1975-TM [27]": {"tested_on": "H1975-TM", "test": "Antitumor activity against human H1975-TM cells xenografted in BALB/c mouse assessed as downregulation of ERK phosphorylation in tumor at 5 to 20 mg/kg,ip once daily for 14 days by Western blot analysis", "type": "functional, organism-based", "settings": "dose 5-20 mg/kg, time 14.0 day"}}, "note": "The source made the active and inactive calls. The rule behind the calls is not given here.", "data": [{"smiles": "CCN(CC)C/C=C/C(=O)Nc1cc2c(Nc3ccc(F)c(Cl)c3)ncnc2cc1OCc1cn(CCCCCCCC(=O)N[C@H](C(=O)N2C[C@H](O)C[C@H]2C(=O)N[C@H](C)c2ccc(-c3scnc3C)cc2)C(C)(C)C)nn1", "values": [{"measurement": "IC50", "setting": "NCI-H1975 [1]", "result": 0.49, "unit": "µM"}, {"measurement": "IC50", "setting": "A549", "result": "> 20", "unit": "µM"}, {"measurement": "k el at 1 h, 1 µM", "setting": "[2]", "result": 0.00015, "unit": "s⁻¹"}, {"measurement": "k el at 1 h, 1 µM", "setting": "[3]", "result": "6.67e-05", "unit": "s⁻¹"}, {"measurement": "half-life at 1 µM", "setting": "[4]", "result": 0.275, "unit": "h"}, {"measurement": "half-life at 1 µM", "setting": "[5]", "result": 3.12, "unit": "h"}, {"measurement": "microsomal CLint at 1 µM", "setting": "[6]", "result": 7.4, "unit": "µL/min/mg"}, {"measurement": "half-life", "setting": "[7]", "result": 1.67, "unit": "h"}, {"measurement": "Tmax", "setting": "[8]", "result": 2, "unit": "h"}, {"measurement": "AUC(0-inf)", "setting": "[9]", "result": 2.83, "unit": "µg·h/mL"}, {"measurement": "MRT inf", "setting": "[10]", "result": 2.89, "unit": "h"}, {"measurement": "Emax", "setting": "[11]", "result": 100, "unit": "%"}, {"measurement": "Emax", "setting": "[12]", "result": 94, "unit": "%"}, {"measurement": "Activity", "setting": "[13]", "result": "Dose-Dependent Effect"}, {"measurement": "Activity", "setting": "[14]", "result": "Dose-Dependent Effect"}, {"measurement": "Activity", "setting": "[15]", "result": "Dose-Dependent Effect"}, {"measurement": "Activity", "setting": "[16]", "result": "Tde"}, {"measurement": "Activity", "setting": "[17]", "result": "Tde"}, {"measurement": "Activity", "setting": "[18]", "result": 83, "unit": "%"}, {"measurement": "Activity", "setting": "[19]", "result": "inactive"}, {"measurement": "Activity", "setting": "[20]", "result": "inactive"}, {"measurement": "Activity", "setting": "[21]", "result": "inactive"}, {"measurement": "Activity", "setting": "[22]", "result": "inactive"}, {"measurement": "inhibition in vivo at 1.25 mg/kg", "setting": "HCC827", "result": 41, "unit": "%"}, {"measurement": "inhibition in vivo at 5 mg/kg", "setting": "NCI-H1975 [23]", "result": 56, "unit": "%"}, {"measurement": "Activity", "setting": "NCI-H1975 [24]", "result": ">75", "unit": "%"}, {"measurement": "inhibition in vivo at 10 mg/kg", "setting": "[25]", "result": 34, "unit": "%"}, {"measurement": "Activity", "setting": "H1975-TM [26]", "result": "Active"}, {"measurement": "Activity", "setting": "H1975-TM [27]", "result": "Active"}]}]}
